# Results taken from PubChem BioAssay AID1963832 (Molecular Pharmacology Branch, DTP, NCI, 2024).
# Test system: 885724-159-R-J1-PDC complex spheroid viability
# Experiment: Anticancer human tumor 885724-159-R-J1-PDC patient-derived pancreatic adenocarcinoma cell line growth inhibition [POLQ]
# Settings: for IC50: curve of first compound; for viability, T/C: stronger effect = lower value
# Method in brief: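 Three-cell-type spheroids modelling solid tumor plus stroma served as the readout system; POL inhibitors were tested individually and in combination, concentration ranges set by clinical Cmax where known.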
# [1] = second compound 0.0316 µM, first compound 0.0316 µM
# [2] = second compound 0.0316 µM, first compound 0.1 µM
# [3] = second compound 0.0316 µM, first compound 0.316 µM
# [4] = second compound 0.0316 µM, first compound 1 µM
# [5] = second compound 0.0316 µM, first compound 3.16 µM
# [6] = second compound 0.0316 µM, first compound 10 µM
# [7] = second compound 0.1 µM, first compound 0.0316 µM
# [8] = second compound 0.1 µM, first compound 0.1 µM
# [9] = second compound 0.1 µM, first compound 0.316 µM
# [10] = second compound 0.1 µM, first compound 1 µM
# [11] = second compound 0.1 µM, first compound 3.16 µM
# [12] = second compound 0.1 µM, first compound 10 µM
# [13] = second compound 0.316 µM, first compound 0.0316 µM
# [14] = second compound 0.316 µM, first compound 0.1 µM
# [15] = second compound 0.316 µM, first compound 0.316 µM
# [16] = second compound 0.316 µM, first compound 1 µM
# [17] = second compound 0.316 µM, first compound 3.16 µM
# [18] = second compound 0.316 µM, first compound 10 µM
# [19] = second compound 1 µM, first compound 0.0316 µM
# [20] = second compound 1 µM, first compound 0.1 µM
# [21] = second compound 1 µM, first compound 0.316 µM
# [22] = second compound 1 µM, first compound 1 µM
# [23] = second compound 1 µM, first compound 3.16 µM
# [24] = second compound 1 µM, first compound 10 µM
# [25] = second compound 3.16 µM, first compound 0.0316 µM
# [26] = second compound 3.16 µM, first compound 0.1 µM
# [27] = second compound 3.16 µM, first compound 0.316 µM
# [28] = second compound 3.16 µM, first compound 1 µM
# [29] = second compound 3.16 µM, first compound 3.16 µM
# [30] = second compound 3.16 µM, first compound 10 µM
# [31] = second compound 10 µM, first compound 0.0316 µM
# [32] = second compound 10 µM, first compound 0.1 µM
# [33] = second compound 10 µM, first compound 0.316 µM
# [34] = second compound 10 µM, first compound 1 µM
# [35] = second compound 10 µM, first compound 3.16 µM
# [36] = second compound 10 µM, first compound 10 µM
# 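Further: spheroids exposed to compounds for 7 days.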
structure (smiles),measurement,setting,value
CC1COCCN1c1cc(C2(S(C)(=N)=O)CC2)nc(-c2ccnc3[nH]ccc23)n1 (centres undefined) + COC1C(OC(N)=O)C(O)C(Oc2ccc3c(O)c(NC(=O)c4ccc(O)c(CC=C(C)C)c4)c(=O)oc3c2C)OC1(C)C,IC50,second compound 0.0316 µM,6.58 µM
same,IC50,second compound 0.1 µM,7.53 µM
same,IC50,second compound 0.316 µM,4.74 µM
same,IC50,second compound 1 µM,3.83 µM
same,IC50,second compound 3.16 µM,5.46 µM
same,IC50,second compound 10 µM,5.74 µM
same,"viability, T/C",[1],95.9%
same,"viability, T/C",[2],96.8%
same,"viability, T/C",[3],93%
same,"viability, T/C",[4],67.8%
same,"viability, T/C",[5],60.3%
same,"viability, T/C",[6],44.6%
same,"viability, T/C",[7],102%
same,"viability, T/C",[8],89.7%
same,"viability, T/C",[9],95.4%
same,"viability, T/C",[10],73.6%
same,"viability, T/C",[11],59.1%
same,"viability, T/C",[12],47%
same,"viability, T/C",[13],87.5%
same,"viability, T/C",[14],98%
same,"viability, T/C",[15],95.9%
same,"viability, T/C",[16],68.7%
same,"viability, T/C",[17],56.5%
same,"viability, T/C",[18],43.9%
same,"viability, T/C",[19],101%
same,"viability, T/C",[20],102%
same,"viability, T/C",[21],89%
same,"viability, T/C",[22],72%
same,"viability, T/C",[23],49.1%
same,"viability, T/C",[24],45.5%
same,"viability, T/C",[25],102%
same,"viability, T/C",[26],85.6%
same,"viability, T/C",[27],91.3%
same,"viability, T/C",[28],72.6%
same,"viability, T/C",[29],54.8%
same,"viability, T/C",[30],43.9%
same,"viability, T/C",[31],111%
same,"viability, T/C",[32],92.2%
same,"viability, T/C",[33],94.1%
same,"viability, T/C",[34],72.7%
same,"viability, T/C",[35],51.7%
same,"viability, T/C",[36],47%
CNCc1ccc(-c2[nH]c3cc(F)cc4c3c2CCNC4=O)cc1 + COC1C(OC(N)=O)C(O)C(Oc2ccc3c(O)c(NC(=O)c4ccc(O)c(CC=C(C)C)c4)c(=O)oc3c2C)OC1(C)C,IC50,second compound 0.0316 µM,> 10 µM
same,IC50,second compound 0.1 µM,> 10 µM
same,IC50,second compound 0.316 µM,> 10 µM
same,IC50,second compound 1 µM,> 10 µM
same,IC50,second compound 3.16 µM,> 10 µM
same,IC50,second compound 10 µM,> 10 µM
same,"viability, T/C",[1],95.9%
same,"viability, T/C",[2],96.7%
same,"viability, T/C",[3],95.4%
same,"viability, T/C",[4],94.7%
same,"viability, T/C",[5],93.2%
same,"viability, T/C",[6],75.9%
same,"viability, T/C",[7],96.4%
same,"viability, T/C",[8],96.5%
same,"viability, T/C",[9],93.5%
same,"viability, T/C",[10],108%
same,"viability, T/C",[11],92.7%
same,"viability, T/C",[12],84%
same,"viability, T/C",[13],101%
same,"viability, T/C",[14],96.4%
same,"viability, T/C",[15],93.5%
same,"viability, T/C",[16],95.5%
same,"viability, T/C",[17],91%
same,"viability, T/C",[18],81.2%
same,"viability, T/C",[19],102%
same,"viability, T/C",[20],91.5%
same,"viability, T/C",[21],87.2%
same,"viability, T/C",[22],85.4%
same,"viability, T/C",[23],92.4%
same,"viability, T/C",[24],78.3%
same,"viability, T/C",[25],93.3%
same,"viability, T/C",[26],88.2%
same,"viability, T/C",[27],90.3%
same,"viability, T/C",[28],84.2%
same,"viability, T/C",[29],89%
same,"viability, T/C",[30],82.5%
same,"viability, T/C",[31],102%
same,"viability, T/C",[32],94.8%
same,"viability, T/C",[33],84%
same,"viability, T/C",[34],87.7%
same,"viability, T/C",[35],88.2%
same,"viability, T/C",[36],88.9%
